Several values for one entry are separate records, joined by “and”; a condition that tells them apart may be missing. Equal entries are not always repeated. Each block holds one compound with its values, some of them ahead of it.
Tests used:
[1] = biological target: Somatostatin receptor type 2 (Mus musculus, UniProt P30875); test: In vitro binding affinity was evaluated against mouse Somatostatin receptor type 2 (mSSTR-2)
[2] = biological target: T1, Somatostatin receptor type 2 (Homo sapiens, UniProt P30874); test: In vitro binding affinity was evaluated against human Somatostatin receptor type 2 (hSSTR-2)
[3] = biological target: T1, Somatostatin receptor type 2; test: In vitro binding affinity was evaluated against human Somatostatin receptor type 2 in experiment 1
[4] = biological target: T1, Somatostatin receptor type 2; test: In vitro binding affinity was evaluated against human Somatostatin receptor type 2 in experiment 2
[5] = Bioavailability; assay type: ADME, organism-based, Canis lupus familiaris; conditions: beagle, dog, in vivo
[6] = Area under curve after 2 mpk peroral administration to beagles; assay type: ADME, Canis lupus familiaris; conditions: Beagle, dog, in vivo, po, 2 mg/kg
[7] = Bioavailability after 2 mpk peroral administration to beagles; assay type: ADME, organism-based, Canis lupus familiaris; conditions: Beagle, dog, in vivo, po, 2 mg/kg
[8] = Cmax value after 2 mpk peroral administration to beagles; assay type: ADME, organism-based, Canis lupus familiaris; set-up: dose 2 mpk, route oral; conditions: Beagle, dog, in vivo, po, 2 mg/kg
[9] = biological target: Somatostatin receptor type 1 (Homo sapiens, UniProt P30872); test: In vitro binding affinity was evaluated against human Somatostatin receptor type 1 (hSSTR-1)
[10] = biological target: Somatostatin receptor type 3 (Homo sapiens, UniProt P32745); test: In vitro binding affinity was evaluated against human Somatostatin receptor type 3 (hSSTR-3)
[11] = biological target: Somatostatin receptor type 4 (Homo sapiens, UniProt P31391); test: In vitro binding affinity was evaluated against human Somatostatin receptor type 4 (hSSTR-4)
[12] = biological target: Somatostatin receptor type 5 (Homo sapiens, UniProt P35346); test: In vitro binding affinity was evaluated against human Somatostatin receptor type 5 (hSSTR-5)
[13] = Area under curve after 1 mpk peroral administration to beagles; assay type: ADME, Canis lupus familiaris; conditions: Beagle, dog, in vivo, po, 1 mg/kg
[14] = Cmax value after 1 mpk peroral administration to beagles; assay type: ADME, organism-based, Canis lupus familiaris; set-up: dose 1 mpk, route oral; conditions: Beagle, dog, in vivo, po, 1 mg/kg
[15] = Bioavailability after 1 mpk peroral administration to beagles; assay type: ADME, organism-based, Canis lupus familiaris; conditions: Beagle, dog, in vivo, po, 1 mg/kg
Rattus norvegicus = species: Rattus norvegicus; test: Compound tested for the inhibition of growth hormone release was determined using primary cultures of rat anterior pituitary cells; assay type: functional, cell-based; conditions: Pituitary gland cell

T1 sequence (P30874 whole entry): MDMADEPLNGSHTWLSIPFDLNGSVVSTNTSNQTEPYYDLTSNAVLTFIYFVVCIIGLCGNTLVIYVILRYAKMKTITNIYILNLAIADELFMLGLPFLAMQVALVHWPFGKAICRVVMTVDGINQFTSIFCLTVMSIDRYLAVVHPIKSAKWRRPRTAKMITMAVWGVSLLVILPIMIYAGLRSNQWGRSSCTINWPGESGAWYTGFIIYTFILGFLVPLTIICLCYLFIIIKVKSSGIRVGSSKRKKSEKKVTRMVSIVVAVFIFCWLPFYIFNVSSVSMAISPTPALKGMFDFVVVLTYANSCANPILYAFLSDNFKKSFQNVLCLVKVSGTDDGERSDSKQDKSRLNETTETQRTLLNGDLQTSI
Chain of Somatostatin receptor type 2 (Mus musculus, UniProt P30875) (P30875 whole entry): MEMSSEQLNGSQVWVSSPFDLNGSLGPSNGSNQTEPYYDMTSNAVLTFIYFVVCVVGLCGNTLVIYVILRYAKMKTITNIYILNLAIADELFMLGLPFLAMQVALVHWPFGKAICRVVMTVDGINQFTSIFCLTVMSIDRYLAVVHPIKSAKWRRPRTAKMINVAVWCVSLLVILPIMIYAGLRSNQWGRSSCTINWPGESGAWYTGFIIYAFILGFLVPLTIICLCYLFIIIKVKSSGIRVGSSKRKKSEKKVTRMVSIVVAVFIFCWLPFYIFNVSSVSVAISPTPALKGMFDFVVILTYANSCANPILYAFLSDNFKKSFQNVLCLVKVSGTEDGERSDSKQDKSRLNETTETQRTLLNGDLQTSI
Chain of Somatostatin receptor type 3 (P32745 whole entry): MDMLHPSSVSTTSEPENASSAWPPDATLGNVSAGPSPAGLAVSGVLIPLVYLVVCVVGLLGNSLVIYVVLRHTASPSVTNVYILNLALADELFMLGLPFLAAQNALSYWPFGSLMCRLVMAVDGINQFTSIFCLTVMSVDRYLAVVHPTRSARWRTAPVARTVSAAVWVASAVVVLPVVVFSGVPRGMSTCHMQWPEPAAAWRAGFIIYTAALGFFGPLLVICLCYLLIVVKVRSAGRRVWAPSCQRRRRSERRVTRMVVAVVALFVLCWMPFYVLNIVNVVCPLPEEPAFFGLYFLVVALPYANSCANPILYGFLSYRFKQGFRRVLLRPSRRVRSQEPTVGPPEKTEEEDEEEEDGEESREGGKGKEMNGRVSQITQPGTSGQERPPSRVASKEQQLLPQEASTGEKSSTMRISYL
Chain of Somatostatin receptor type 4 (P31391 whole entry): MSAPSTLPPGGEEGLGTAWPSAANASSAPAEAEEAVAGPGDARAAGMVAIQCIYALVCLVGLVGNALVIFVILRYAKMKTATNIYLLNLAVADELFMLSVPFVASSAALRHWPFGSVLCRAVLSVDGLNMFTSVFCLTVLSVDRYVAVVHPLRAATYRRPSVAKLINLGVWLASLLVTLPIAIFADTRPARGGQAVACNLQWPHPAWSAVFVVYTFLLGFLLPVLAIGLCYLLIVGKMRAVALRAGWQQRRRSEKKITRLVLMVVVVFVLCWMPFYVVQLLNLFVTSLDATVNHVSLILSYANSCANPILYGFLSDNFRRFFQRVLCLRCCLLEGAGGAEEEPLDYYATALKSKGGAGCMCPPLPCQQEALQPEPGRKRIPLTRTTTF
Chain of Somatostatin receptor type 1 (P30872 whole entry): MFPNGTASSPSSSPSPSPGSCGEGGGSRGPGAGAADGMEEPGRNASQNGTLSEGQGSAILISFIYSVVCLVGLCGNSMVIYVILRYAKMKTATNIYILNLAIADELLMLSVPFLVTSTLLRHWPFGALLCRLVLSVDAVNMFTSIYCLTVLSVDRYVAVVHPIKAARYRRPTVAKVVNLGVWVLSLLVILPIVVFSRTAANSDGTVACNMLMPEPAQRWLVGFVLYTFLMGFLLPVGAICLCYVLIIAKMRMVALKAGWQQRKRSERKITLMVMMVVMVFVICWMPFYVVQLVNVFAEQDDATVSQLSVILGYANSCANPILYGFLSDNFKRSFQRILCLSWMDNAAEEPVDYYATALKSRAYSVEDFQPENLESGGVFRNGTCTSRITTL

Ki [2]: 80 nM
Compound: C[C@@H](c1c[nH]c2ccccc12)[C@H](C(=O)N[C@H](CCCCN)C(=O)OC(C)(C)C)N1CCN(c2cccc(-c3ccccc3)c2)C1=O

Ki [3]: 40 nM | Ki [4]: 6.3 nM
Compound: C[C@@H](c1c[nH]c2ccccc12)[C@H](C(=O)N[C@H](CCCCN)C(=O)OC(C)(C)C)N1CCN(C2CCC(c3ccccc3)CC2)C1=O (stereo partly drawn)

Ki [2]: 5.9 nM
Compound: CC(CCN1CCN([C@@H](C(=O)N[C@H](CCCCN)C(=O)OC(C)(C)C)[C@@H](C)c2c[nH]c3ccccc23)C1=O)c1ccccc1 (stereo partly drawn)

AUC [6]: 837 ng·h/mL | bioavailability [7]: 5% | Cmax [8]: 350 ng/mL | Ki [9]: 712 nM | Ki [10]: 1290 nM | Ki [11]: 83 nM | Ki [12]: 284 nM | Ki [2]: 3.6 nM
Compound: C[C@@H](c1c[nH]c2ccccc12)[C@H](C(=O)N[C@H](CCCCN)C(=O)OC(C)(C)C)N1CCN(CCCc2ccccc2)C1=O

Ki [2]: 47 nM
Compound: C[C@@H](c1c[nH]c2ccccc12)[C@H](C(=O)N[C@H](CCCCN)C(=O)OC(C)(C)C)N1CCN(CCc2ccccc2)C1=O

Ki [2]: 14 nM
Compound: C[C@@H](c1c[nH]c2ccccc12)[C@H](C(=O)N[C@H](CCCCN)C(=O)OC(C)(C)C)N1CCN(Cc2ccccc2)C1=O

bioavailability [5]: 3% | Ki [2]: 1.3 nM
Compound: C[C@@H](c1c[nH]c2ccccc12)[C@H](C(=O)N[C@H](CCCCN)C(=O)OC(C)(C)C)N1CCN(Cc2ccc(C(F)(F)F)cc2)C1=O

Ki [2]: 12 nM
Compound: CC(CCc1ccccc1)N1CCN([C@@H](C(=O)N[C@H](CCCCN)C(=O)OC(C)(C)C)[C@@H](C)c2c[nH]c3ccccc23)C1=O (stereo partly drawn)

Ki [2]: 1.4 nM
Compound: C[C@@H](c1c[nH]c2ccccc12)[C@H](C(=O)N[C@H](CCCCN)C(=O)OC(C)(C)C)N1CCN(C2CCCN(c3ccccc3)C2)C1=O (stereo partly drawn)

The remaining lines, values behind:

Compound: CN(C(=O)N1CCC2(CCc3ccccc32)CC1)[C@H](Cc1c[nH]c2ccccc12)C(=O)NCCCCCN
Ki [1]: > 10 nM

Compound: COC(=O)[C@@H](CCCCN)NC(=O)[C@@H](Cc1c[nH]c2ccccc12)OC(=O)N1CCC2(CCc3ccccc32)CC1
Ki [1]: 10 nM

Compound: NCCCCCNC(=O)[C@@H](Cc1c[nH]c2ccccc12)NC(=O)N1CCC2(CCc3ccccc32)CC1
Ki [1]: 10 nM

Compound: C[C@@H](c1c[nH]c2ccccc12)[C@H](C(=O)NC[C@H]1OC[C@H](N)CO1)N1CCN(Cc2ccc(Cl)c(Cl)c2)C1=O
bioavailability [5]: 21% | Ki [2]: 7.3 nM

Compound: COC(=O)[C@@H](CCCCN)NC(=O)[C@@H](Cc1c[nH]c2ccccc12)NC(=O)N1CCC2(CCc3ccccc32)CC1
Ki [1]: 2 nM

Compound: C[C@@H](c1c[nH]c2ccccc12)[C@@H](NC(=O)N(C)CCCc1ccccc1)C(=O)N[C@H](CCCCN)C(=O)OC(C)(C)C
AUC [13]: 333 ng·h/mL | Cmax [14]: 103 ng/mL | Ki [2]: 2.2 nM

Compound: C[C@@H](c1c[nH]c2ccccc12)[C@H](C(=O)NC[C@H]1OC[C@H](N)CO1)N1CCN(CCCc2ccccc2)C1=O
Ki [2]: 18 nM

Compound: C[C@@H](c1c[nH]c2ccccc12)[C@H](C(=O)NC[C@H]1OC[C@H](N)CO1)N1CCN(CCC(c2ccccc2)c2ccccc2)C1=O
Ki [2]: 8.5 nM and 1.1 nM

Compound: C[C@@H](c1c[nH]c2ccccc12)[C@H](C(=O)NC[C@H]1OC[C@H](N)CO1)N1CCN(CCc2cccc3ccccc23)C1=O
Ki [2]: 122 nM

Compound: C[C@@H](c1c[nH]c2ccccc12)[C@H](C(=O)NC[C@H]1OC[C@H](N)CO1)N1CCN(CCCn2c(O)nc3ccccc32)C1=O
Ki [2]: 40 nM

Compound: C[C@@H](c1c[nH]c2ccccc12)[C@H](C(=O)N(C)C[C@H]1OC[C@H](N)CO1)N1CCN(CCC(c2ccccc2)c2ccccc2)C1=O
Ki [2]: 4.6 nM

Compound: C[C@@H](c1c[nH]c2ccccc12)[C@@H](NC(=O)NCCCc1ccccc1)C(=O)N[C@H](CCCCN)C(=O)OC(C)(C)C
AUC [13]: 314 ng·h/mL | Cmax [14]: 86 ng/mL | bioavailability [15]: 1% | Ki [2]: 1 nM

Compound: C[C@@H](c1c[nH]c2ccccc12)[C@H](C(=O)N(C)C[C@H]1OC[C@H](N)CO1)N1CCN(CCCc2ccccc2)C1=O
Ki [2]: 11 nM

Compound: C[C@@H](c1c[nH]c2ccccc12)[C@H](C(=O)N(C)C[C@H]1OC[C@H](N)CO1)N1CCN(C2CCCN(c3ccccc3)C2)C1=O (stereo partly drawn)
bioavailability [5]: 15% | IC50 (Rattus norvegicus): 70 nM | Ki [10]: > 10000 nM | Ki [12]: 1400 nM | Ki [3]: 2.1 nM | Ki [4]: 14 nM

Source: ChEMBL document CHEMBL1132396, “Potent, orally bioavailable somatostatin agonists: good absorption achieved by urea backbone cyclization” (Bioorg Med Chem Lett, 1999)
